How the values were obtained:
[1] = system: HUVEC; test: HUVEC formation of vascular-like structures on Matrigel; type: cell-based, human; settings: HUVEC on growth factor-reduced Matrigel, 8-12 h
Procedure: The formation of vascular-like structures by HUVEC is assessed on the basement membrane matrix preparation, growth factor-reduced Matrigel (Becton Dickinson, Bedford, Mass.), as described in Kureishi Y, et al. Nat Med 2000 September;6(9):1004-10. Two-well chamber slides are coated with Matrigel (10 mg/ml) according to the manufacturer's instructions. HUVEC are seeded on coated plates at 4-5×10^4 cells/well in EBM and incubated at 37° C. for 60 minutes. The media are supplemented with the agents (metalloprotease domain of human Kuz, Kuz inhibitors, Kuz antibodies, VEGF, etc.) and incubated at 37° C. for 8-12 h. Tube formation image is observed using an inverted phase contrast microscope (Nikon Diaphot). Images are captured with a video graphic system (DEI-750 CE Digital Output Camera, Optronics, Goleta, Calif.). The degree of tube formation is quantified by measuring the length of tubes in random fields from each well using the National Institutes of Health (NIH) Image Program.

[2] = system: Kuz; test: Inhibition of angiogenesis by Kuz inhibitors in several model systems
Procedure: The presence of Kuz and its activity is assayed by ELISA and Kuz-specific protease activity prior to or subsequent to the measure of angiogenesis.

Compound | formation of capillary-like tubes [1] | inhibition of angiogenesis [2]
VEGF | promotes the formation of capillary-like tubes | 
TIMP-1: natural MMP inhibitor, tissue inhibitor of MMPs |  | inhibit angiogenesis
CC(C)CC(CC(=O)NO)C(=O)N[C@@H](C)C(=O)NCCN (stereo partly drawn) [IC-3, N-{D,L-[2-(hydroxyaminocarbonyl)methyl]-4-methyl-pentanoyl}-L-alanine, 2-aminoethyl amide] |  | inhibit angiogenesis
CNC(=O)[C@H](Cc1c[nH]c2ccccc12)NC(=O)[C@@H](CC(=O)NO)CC(C)C [GM6001, NHOHCOCH2CH(1-Bu)CO-Trp-NHMe] |  | inhibit angiogenesis
